Entries after “also recorded” stand apart in the source; their conditions may differ. Read-outs that look alike come from different tables or passages of the source.
Legend:
[1] = system: phenylquinone-induced muscular writhing; assay: Analgesic activity, phenylquinone-writhing test; type: in vivo, Swiss albino mice; details: for Physiological activity: analgesic (in words): mouse, in vivo
Description: (§1) The compounds of formula (1) have anti-inflammatory, analgesic, hyperglycemic, and/or hypoglycemic properties. […] A. Winter, p.190-202, Int. Symposium on Non-Steroidal Anti-Inflammatory Drugs, Milan, 1964, Excerpta Medica Foundation, Amsterdam. […] J. Pharmac. Chemother. 32, 295 (1968). […] Chem. 3, 99 (1961) and by Barthelmai et al., in Klin. Wchschr. 40, 585 (1962).
(§2) Initially the activity of the compound tested on an animal was determined at a single dose. If the substance was active at this dose, it was subjected to limited repeat testing. If the presence of activity was confirmed by repetition of the testing, a dose response relation was constructed and the effective dose (ED50) determined. If toxicity was encountered with the initial dose, the dose was reduced until one was reached which was tolerated by the animals tested.
Substances were administered subcutaneously to five Swiss albino mice, weighing 18 to 22 grams, before determining their activity in the phenylquinone-writhing test (see Collier et al, cited above). The active ingredients were suspended in a solution of physiological saline and "Tween 80™" surfactant. A dose amounting to 10 milliliters of physiological saline solution and active ingredient per kilogram of bodyweight was administered to the mice according to the dosage as set out in Table 2. The test results are shown in Table 2, the compounds tested being compared to Aspirin™ and dextropropoxyphene™.

blood glucose = assay: Determination of blood glucose (hyperglycemic / hypoglycemic activity); type: in vivo, Wistar rats; details: for % change in blood-glucose concentrations, post-treatment 2 hours / % change in blood-glucose concentrations, post-treatment 4 hours / ED50: oral, fasted rats; for % change in blood-glucose concentrations, post-treatment 2 hours / % change in blood-glucose concentrations, post-treatment 4 hours: 100 mg/kg; for ED50: Rattus norvegicus, dose elevating blood glucose by 50 percent; for Physiological activity: hyperglycemic (in words) / Physiological activity: hypoglycemic (in words): rat, in vivo
Description: as §1, §2
Compounds were suspended in distilled water and were administered orally to overnight-fasted Wistar rats. Capillary blood samples were obtained from the tail at zero, two, and four hours post-treatment and the sera derived from these samples were analyzed for glucose by spectrophotometric determination of enzymatically produced NADH2 (reduced form of nicotinamide adenine dinucleotide), using the commercial reagent "Escalab G-15™" according to the method described by Holland et al and by Barthelmai et al, both cited above. The test results are shown in Tables 4 and 5, and the ED50 values shown in Table 4 were calculated as the dose of compound which elevated blood glucose levels by 50 percent.

[2] = system: carrageenan-induced paw edema; assay: Anti-inflammatory activity, carrageenan-induced paw edema; parameters: species or system Sprague-Dawley rats; details: rat, in vivo
Description: as §1, §2
Substances were administered subcutaneously to six Sprague-Dawley rats, weighing 100-120 g. A suspension of 0.03% carageenan was injected under the plantar skin of a hind paw. The increase in volume of the inflamed paw was measured 3 and 5 hours after drug administration.

[3] = Mus musculus, sc, mice, 128 mg/kg, read-out: Response % inhibition
[4] = Mus musculus, sc, mice, read-out: Response % inhibition
[5] = Mus musculus, sc, mice, Litchfield and Wilcoxon, read-out: ED50
[6] = 2 hours, read-out: ED50, hyperglycemic activity, post-treatment 2 hours
[7] = 4 hours, read-out: ED50, hyperglycemic activity, post-treatment 4 hours

Molecule: CC(=O)Oc1ccccc1C(=O)O [Aspirin, reference compound]
- ED50 ([1]; Mus musculus, sc): 52 mg/kg

Molecule: CCCNC(=O)NS(=O)(=O)c1ccc(Cl)cc1 [Chlorpropamide, reference compound]
- % change in blood-glucose concentrations, post-treatment 2 hours (blood glucose; 2 hours): > -40%
- % change in blood-glucose concentrations, post-treatment 4 hours (blood glucose; 4 hours): > -40%

Molecule: O=C(NN1CC=CCC1)c1cccc[n+]1[O-] [Compound A-36, N-(2-pyridylcarbonylamino-1-oxide)-1,2,3,6-tetrahydropyridine]
- Physiological activity: anti-inflammatory (in words) [2]: anti-inflammatory
- inhibition in vivo at 128 mg/kg [1, 3]: 55.3%
- Physiological activity: analgesic (in words) [1]: analgesic

Molecule: COC(=O)N1C=CC(C(=O)NN2CC=CCC2)=CC1 [Compound A-45, N-[4-(1-methoxycarbonyl-1,2-dihydropyridyl)carbonylamino]-1,2,3,6-tetrahydropyridine]
- Physiological activity: anti-inflammatory (in words) [2]: striking anti-inflammatory action, comparing favourably with the standard compound used
- inhibition in vivo at 16 mg/kg [1, 4]: 61%
- inhibition in vivo at 32 mg/kg [1, 4]: 61%
- inhibition in vivo at 128 mg/kg [1, 3]: 97%
- inhibition in vivo at 256 mg/kg [1, 4]: 95%
- Physiological activity: analgesic (in words) [1]: active analgesics; also recorded: analgesic

Molecule: O=C(Cc1cccnc1)NN1CC=CCC1 [Compound A-48, N-(3-picolylcarbonylamino)-1,2,3,6-tetrahydropyridine]
- Physiological activity: anti-inflammatory (in words) [2]: striking anti-inflammatory action, comparing favourably with the standard compound used
- inhibition in vivo at 8 mg/kg ([1]; Mus musculus, sc, mice, 8 mg/kg, read-out: Response % inhibition): 28%
- inhibition in vivo at 16 mg/kg [1, 4]: 45%
- inhibition in vivo at 32 mg/kg [1, 4]: 94%
- inhibition in vivo at 128 mg/kg [1, 3]: 100%
- inhibition in vivo at 256 mg/kg [1, 4]: 100%
- ED50 [1, 5]: 14.5 mg/kg
- Physiological activity: analgesic (in words) [1]: active analgesics; also recorded: analgesic

Molecule: COC(=O)N1CC=C(C(=O)NN2CC=CCC2)CC1 [Compound A-49, N-[4-(1-methoxycarbonyl-1,2,3,6-tetrahydropyridyl)carbonylamino]-1,2,3,6-tetrahydropyridine]
- Physiological activity: anti-inflammatory (in words) [2]: anti-inflammatory
- inhibition in vivo at 64 mg/kg [1, 4]: 3%
- inhibition in vivo at 128 mg/kg [1, 3]: 78%
- inhibition in vivo at 256 mg/kg [1, 4]: 95%
- Physiological activity: analgesic (in words) [1]: active analgesics; also recorded: analgesic

Molecule: CN1CC=C(C(=O)NN2CC=CCC2)CC1 [Compound A-50, N-[4-(1-methyl-1,2,3,6-tetrahydropyridyl)carbonylamino]-1,2,3,6-tetrahydropyridine]
- inhibition in vivo at 256 mg/kg [1, 4]: 47%
- Physiological activity: analgesic (in words) [1]: analgesic

Molecule: O=C(CCc1ccccc1)NN1CC=CCC1 [Compound A-55, N-(phenylethylcarbonylamino)-1,2,3,6-tetrahydropyridine]
- Physiological activity: anti-inflammatory (in words) [2]: striking anti-inflammatory action, comparing favourably with the standard compound used
- inhibition in vivo at 120 mg/kg [1, 4]: 42%
- Physiological activity: analgesic (in words) [1]: analgesic

Molecule: O=C(COc1ccccc1)NN1CC=CCC1 [Compound A-62, N-(phenoxymethylenecarbonylamino)-1,2,3,6-tetrahydropyridine]
- Physiological activity: anti-inflammatory (in words) [2]: striking anti-inflammatory action, comparing favourably with the standard compound used
- inhibition in vivo at 25 mg/kg ([1]; Mus musculus, sc, mice, 25 mg/kg, read-out: Response % inhibition): 50%
- ED50 [1, 5]: 25 mg/kg
- Physiological activity: analgesic (in words) [1]: active analgesics; also recorded: analgesic
- ED50 (blood glucose; [6]): 41 mg/kg
- ED50 (blood glucose; [7]): 53 mg/kg
- Physiological activity: hyperglycemic (in words) (blood glucose): significant hyperglycemic activity; also recorded: hypergylcemic

Molecule: O=C(NN1CC=CCC1)C1CCCCC1 [Compound A-63, N-(cyclohexylcarbonylamino)-1,2,3,6-tetrahydropyridine]
- Physiological activity: anti-inflammatory (in words) [2]: striking anti-inflammatory action, comparing favourably with the standard compound used
- inhibition in vivo at 16.5 mg/kg ([1]; Mus musculus, sc, mice, 16.5 mg/kg, read-out: Response % inhibition): 50%
- ED50 [1, 5]: 16.5 mg/kg
- Physiological activity: analgesic (in words) [1]: active analgesics; also recorded: analgesic
- ED50 (blood glucose; [6]): 36.5 mg/kg
- ED50 (blood glucose; [7]): 53 mg/kg
- Physiological activity: hyperglycemic (in words) (blood glucose): significant hyperglycemic activity

Molecule: O=C(Cc1ccc2c(c1)OCO2)NN1CC=CCC1 [Compound A-70, N-(3,4-methylenedioxyphenylmethylenecarbonylamino)-1,2,3,6-tetrahydropyridine]
- inhibition in vivo at 60 mg/kg ([1]; Mus musculus, sc, mice, 60 mg/kg, read-out: Response % inhibition): 80%
- inhibition in vivo at 120 mg/kg [1, 4]: 91%
- Physiological activity: analgesic (in words) [1]: active analgesics; also recorded: analgesic

Molecule: COc1ccc(C(=O)NN2CC=CCC2)cc1 [Compound A-77, N-(4-methoxyphenylcarbonylamino)-1,2,3,6-tetrahydropyridine]
- inhibition in vivo at 128 mg/kg [1, 3]: 31.4%
- Physiological activity: analgesic (in words) [1]: analgesic
- % change in blood-glucose concentrations, post-treatment 2 hours (blood glucose; 2 hours): -69%
- % change in blood-glucose concentrations, post-treatment 4 hours (blood glucose; 4 hours): -26%
- Physiological activity: hypoglycemic (in words) (blood glucose): potent hypoglycemic activity

Molecule: Cc1ccc(C(=O)NN2CC=CCC2)cc1 [Compound A-78, N-(4-methylphenylcarbonylamino)-1,2,3,6-tetrahydropyridine]
- inhibition in vivo at 64 mg/kg [1, 4]: 92.4%
- Physiological activity: analgesic (in words) [1]: active analgesics; also recorded: analgesic
- % change in blood-glucose concentrations, post-treatment 2 hours (blood glucose; 2 hours): -73%
- % change in blood-glucose concentrations, post-treatment 4 hours (blood glucose; 4 hours): -41%
- Physiological activity: hypoglycemic (in words) (blood glucose): potent hypoglycemic activity

Molecule: O=C(NN1CC=CCC1)c1ccc(Cl)cc1 [Compound A-79, N-(4-chlorophenylcarbonylamino)-1,2,3,6-tetrahydropyridine]
- inhibition in vivo at 64 mg/kg [1, 4]: 33.9%
- Physiological activity: analgesic (in words) [1]: analgesic
- % change in blood-glucose concentrations, post-treatment 4 hours (blood glucose; 4 hours): -26%
- Physiological activity: hypoglycemic (in words) (blood glucose): potent hypoglycemic activity

Molecule: O=C(NN1CC=CCC1)c1ccc(Cl)c(Cl)c1 [Compound A-80, N-(3,4-dichlorophenylcarbonylamino)-1,2,3,6-tetrahydropyridine]
- inhibition in vivo at 128 mg/kg [1, 3]: 72%
- Physiological activity: analgesic (in words) [1]: active analgesics; also recorded: analgesic
- % change in blood-glucose concentrations, post-treatment 2 hours (blood glucose; 2 hours): -50%
- % change in blood-glucose concentrations, post-treatment 4 hours (blood glucose; 4 hours): -50%
- Physiological activity: hypoglycemic (in words) (blood glucose): potent hypoglycemic activity

Molecule: CCC(=O)O[C@](Cc1ccccc1)(c1ccccc1)[C@H](C)CN(C)C [Dextropropoxyphene, reference compound]
- ED50 ([1]; Mus musculus, sc): 56 mg/kg

Molecule: N-(benzoylamino)-3(diethylaminocarbonyl)-1,2,3,6-tetrahydropyridine [Compound A-43]
- Physiological activity: analgesic (in words) [1]: analgesic
- Response % inhibition ([1]; s.c., mice, 128 mg/kg): 39.0%
